Assay results from patent US20250361271A1, “PEPTIDE AGONIST” (THE UNIVERSITY OF BIRMINGHAM, priority 2022, published 2025).
Where two headings read alike, the source gives them in different places. Where a SMILES comes first, the peptide text is derived from it. [ ]: non-standard residue; d: D form. d(pGlu) = O=C1CC[C@H](C(=O)O)N1; pGlu = O=C1CC[C@@H](C(=O)O)N1

Columns and labels:
[1] = T1/2 in plasma (mouse); format: in vitro ADME; conditions: for stability compared with PEPITEM: in mouse plasma, human plasma, and or mouse blood; for half-life: mouse, plasma, 1 μM peptide, 37° C.
From the text: Take all measurements in duplicate.

[2] = format: in vitro ADME, pig
Description: Pig eyes were treated with either […] or one of TVS (reverse sequence of SVT comprising amino acids in D-isomeric forms), […] and QGA, derived from the […] sequence. The eyes were then incubated in a dark humified chamber. The eyes were dissected, and the vitreous humour and retina were harvested. The samples were sonicated to break up the tissue and purified using a C18 column. Once purified, the samples were digested and analysed by mass spectrometry.

[3] = system: PBLs on cytokine stimulated HDBECs; conditions: for % Inhibition (3 nM): 3 nM peptide; for % Inhibition (3 nM) / % Inhibition (0.3 nM): inhibition of PBL transmigration (as a percentage of adherent cells); for % Inhibition (0.3 nM): 0.3 nM peptide
Description: Blood samples were obtained from consensual healthy donors and were collected in EDTA tubes (Sigma-Aldrich). […] 5 ml of blood was layered on top of the density gradient, and was centrifuged at 2500 rpm for 45 minutes. […] The PBMCs were washed twice for 7 minutes at 1500 rpm. Peripheral blood lymphocytes (PBLs) were isolated via panning PBMCs onto a culture flask for 30 minutes at 37° C., allowing monocytes to adhere.
HDBECS defrosted at 37° C. in a 25 cm^2 cell culture flask in 10 ml of media were dissociated using EDTA (Sigma-Aldrich) and Trypsin (Gibco) and seeded on 10 wells in a 12-well tissue culture plates (Falcon) and left to adhere at 37° C. After 24 hours, confluent endothelial layers were cytokine stimulated using 100 U/ml TNF-α (Sigma-Aldrich) and 10 ng/ml IFN-γ (Peprotech) for 24 hours at 37° C. The peptide treatment of the 1×10^6 cells/ml PBLs consisted of adding the peptides immediately before use. […] 1×10^6 PBLs were added to each well and incubated at 37° C., allowing PBLs to adhere to migrate across the endothelium. […] Cells were then fixed with 2% glutaraldehyde for 10 minutes and then imaged using phase-contrast microscopy via an inverted bright-field microscope at 20× magnification.
Imaging of the PBL migration assay was carried out using ImagePro 7 software (Media Cybernetics). Surface adherent cells were categorised as being phase-bright, and transmigrated cells were categorised as phase-dark with altered morphology, appearing as being under the endothelial layer. Images were taken at 5 different fields of each well, and an average of counted adherent and migrated PBLs was calculated.
The same methods described for the in vitro transmigration assay and analysis were used, and PBL transmigration was calculated as a percentage of adherent cells. Peptides were added to the PBLs at concentrations ranging from 0.0001-500 ng/ml on the cytokine stimulated HDBECs and the resulting PBL transmigration (as a percentage of adherent cells) was plotted as a function of log10 of the peptide concentration.
The peptides were added at concentration of 20 ng/ml and run alongside untreated PBL (PBL0) and scrambled protein to analyse their effects on adhesion and transmigration.

[4] = human, plasma
Description: Store at −20° C. or on ice. • 2) Thaw the plasma and spin in a centrifuge at 1500×g for 10 minutes at room temperature. • 3) Prepare stock solution of the peptide at 10 mM in dimethyl sulfoxide (DMSO) or phosphate buffered saline (PBS) and dilute solutions by adding 3 μL of 10 mM stock to 297 μL DMSO or PBS (100 µM stock for a final 1 μM concentration). • 4) Add 550 μL plasma to an incubation tube and separately add 5 μL of peptide stock solution to an incubation tube. Warm the incubation tubes (5 minutes, 37° C., with shaking). • 5) After warming, add 495 μL of warmed plasma to warmed peptide (time=0). Mix well and shake the tube containing the mixed sample (37° C., 1500×g). • 6) At 2, 5, 15, 30, 45 and 60 minutes after contacting the peptide and plasma, collect 40 μL of the sample into pre-prepared quench tubes. • 7) Analyse the sample at each time point by mass spectrometry. Take all measurements in duplicate.
(§1) The samples were analysed and the T1/2 values were calculated by XenoGesis. The T1/2 values correspond to the time taken for the concentration of the peptide in the blood or plasma to be reduced by 50%.

[5] = T1/2 in blood (mouse)
Description: Store at −20° C. or on ice. • 2) Thaw the blood and spin in a centrifuge at 1500×g for 10 minutes at room temperature. • 3) Prepare stock solution of the peptide at 10 mM in DMSO or PBS and dilute solutions by adding 3 μL of 10 mM stock to 297 μL DMSO or PBS (100 μM stock for a final 1 μM concentration). • 4) Add 550 μL blood to an incubation tube and separately add 4 μL of peptide stock solution to an incubation tube. Warm the incubation tubes (5 minutes, 37° C., with shaking). • 5) After warming, add 396 μL of warmed blood to warmed peptide (time=0). Mix well and shake the tube containing the mixed sample (37° C., 1400×g). • 6) At 2, 5, 15, 30, 45 and 60 minutes after contacting the peptide and blood, collect 40 μL of the sample into pre-prepared quench tubes. • 7) Analyse the sample at each time point by mass spectrometry. Take all measurements in duplicate.
as §1

[6] = system: primary murine calvarial osteoblasts; test: Alkaline phosphatase activity, murine osteoblasts; format: cell-based, mouse; conditions: vs untreated cells
Description: Skin was removed from around calvaria using forceps, and the calvaria was dissected out and cleaned of any contaminating tissue. Calvaria were added to αMEM media supplemented with 1 mg/ml of collagenase d (Roche, Basel, Switzerland, COLLD-RO). Tubes were then agitated at 37° C. for 10 minutes and the media discarded. αMEM media supplemented with 1 mg/ml of collagenase d was again added to calvaria and shaken at 37° C. for 30 minutes. Media (containing cells) was then removed and kept on ice. The calvaria were then again shaken at 37° C. for 10 minutes in 1.5 ml of αMEM media supplemented with 5 μM EDTA (Sigma-Aldrich, E7889) and the cell containing media transferred to the sample on ice, pooling the cells. […] Cells on ice were then spun down at 300 g for 4 minutes, resuspended in 1 ml of Basal media and counted using a haemocytometer. […] Mineralisation was assessed by quantifying the level of alkaline phosphate (ALP) activity (absorbance at 405 nm) per condition normalized to the absorbance generated by the untreated control (control on the graph). […] The plate was wrapped in foil and left to run for 45 minutes at 37° C. in an incubated shaker (SciQuip; Shropshire, UK) before being quantified using a Synergy HT plate reader (BioTek) with absorbance set at 405 nm.

[7] = system: primary human osteoblasts; test: Alkaline phosphatase activity, human osteoblasts; format: cell-based; conditions: 10 ng/ml peptide, 4 days, vs untreated cells, FIG. 5a
Description: Human osteoarthritis subchondral joint tissue was obtained at the time of total knee and hip joint replacement operations from the Royal Orthopaedic Hospital (Birmingham). To isolate primary osteoblasts, cartilage was removed from the femoral condyles and tibial plateaus and cut into 2 mm^2 pieces. Samples were kept in media and cleaned of fat. Media contains DMEM (Sigma, D6546), FCS (10%), GPS (1%), Non-essential amino acid (1%; Sigma, M7145), β10 glycerophosphate (2 mM; Sigma, G9422) and L-Ascorbic acid (50 μg/ml; Sigma, A5960). Bone chips were placed in T75 flasks in 10 mL of media, replacing media every 2-3 days. […]
Osteoblasts (8×10^3 cells/well) were cultured in mineralisation differentiation media in the presence or absence of peptide (10 ng/ml) for 4 days. Mineralisation was assessed by quantifying the level of alkaline phosphate (ALP) activity (absorbance at 405 nm) per condition normalized to the absorbance generated by the untreated control (control on the graph).
To measure ALP activity, cells were washed in PBS before being lysed in 100 μl of RIPA buffer (Thermo Fisher, R^0278) for 15 minutes on ice. […] The plate was wrapped in foil and left to run for 45 minutes at 37° C. in an incubated shaker (SciQuip; Shropshire, UK) before being quantified using a Synergy HT plate reader (BioTek) with absorbance set at 405 nm.

| Compound | half-life [1] | IC50 [3] | % Inhibition (3 nM) [3] | % Inhibition (0.3 nM) [3] | half-life ([5]; whole blood) | other results |
| --- | --- | --- | --- | --- | --- | --- |
| CC(C)[C@@H](NC(=O)[C@H](N)[C@H](C)O)C(=O)N[C@H](CO)C(N)=O (relative stereo) [SEQ ID NO. 11, H-T*V*S*-NH2] | > 3 h | 0.024 nM | – | – | – | stability compared with PEPITEM [1]: at least as stable; eye tissue in which the peptide was found by mass spectrometry [2]: Retina only |
| C[C@H](NC(=O)CNC(=O)[C@@H]1CCC(=O)N1)C(=O)O [SEQ ID NO. 21, pEGA] ([pGlu]-Gly-Ala-OH) | > 3 h | 0.12 nM | 41.20% | – | – | half-life [4]: > 3 h |
| C[C@H](NC(=O)CNC(=O)[C@@H]1CCC(=O)N1)C(N)=O [SEQ ID NO. 23, pEGA-NH2] ([pGlu]-Gly-Ala-NH2) | > 3 h | 0.0032 nM | – | 54.50% | – | effectiveness in inhibiting PBL transmigration compared with PEPITEM (% Inhibition at 0.3 and/or 3 nM) ([3]; PEPITEM 41.90): more effective; potency at inhibiting the transmigration of T cells compared with PEPITEM (IC50) ([3]; PEPITEM IC50 0.02): more potent |
| CC(=O)N[C@H](CCC(N)=O)C(=O)NCC(=O)N[C@H](C)C(N)=O [SEQ ID NO. 26, Ac-Q*GA*-NH2] | > 3 h | 0.018 nM | – | – | – | stability compared with PEPITEM [1]: at least as stable |
| C[C@@H](NC(=O)CNC(=O)[C@H]1CCC(=O)N1)C(N)=O [SEQ ID NO. 28, pE*GA*-NH2] ([d(pGlu)]-Gly-[dA]-NH2) | – | – | – | – | – | half-life [5]: 1.17 h |
| CNC(=O)[C@H](C)NC(=O)CNC(=O)[C@@H]1CCC(=O)N1 [SEQ ID NO. 29, pEGA-NHMe] ([pGlu]-Gly-Ala-NHMe) | – | – | 43.35% | 40.89% | 1.62 h | – |
| C[C@H](NC(=O)CNC(=O)[C@@H]1CCC(=O)N1)C(=O)N(C)C [SEQ ID NO. 30, pEGA-N(Me)2] ([pGlu]-Gly-Ala-NMe2) | – | – | 42.65% | 44.70% | > 3 h | – |
| CC(C)[C@H](NC(=O)CNC(=O)[C@@H]1CCC(=O)N1)C(N)=O [SEQ ID NO. 31, pEGV-NH2] ([pGlu]-Gly-Val-NH2) | – | – | 50.27% | 49.94% | > 3 h | – |
| NC(=O)[C@H](Cc1ccccc1)NC(=O)CNC(=O)[C@@H]1CCC(=O)N1 [SEQ ID NO. 33, pEGF-NH2] ([pGlu]-Gly-Phe-NH2) | – | – | 42.84% | 49.15% | 2.43 h | – |
| EGA | – | – | – | – | – | eye tissue in which the peptide was found by mass spectrometry [2]: Retina only |
| ELSNEER [SEQ ID NO. 47, reference compound] | – | – | – | – | – | ALP activity (mineralisation), murine osteoblasts ([6]; 10 ng/ml peptide, 4 days, FIG. 5a): did not exhibit a statistically significant change in osteoblast activity; ALP activity (mineralisation), human osteoblasts [7]: did not exhibit a statistically significant change in osteoblast activity |
| TSV | – | – | – | – | – | ALP activity (maturation mineralisation), murine osteoblasts ([6]; 8 days, FIG. 5b): significantly increased |
